From patent US4720489A, “Hair growth modification with ornithine decarboxylase inhibitors” (priority 1984, dated 1988)

Assays:
[1] = system: androgen-mediated hair growth in male hamsters (flank organ hair mass); experiment: inhibition of androgen-mediated hair growth in male hamsters following topical application for 21 consecutive days (flank organ hair mass); type: in vivo, hamster; settings: 500 micrograms in 10 microliters 70% ethanol, regrowth during final ten days
Method: Five hundred micrograms of the compound in ten microliters of 70% ethanol was applied topically for 21 consecutive days. Hair mass changes were determined by comparing the regrowth of hair during the final ten days of treatment. […] Furthermore, the magnitude of hair mass inhibition in the hamsters treated with the ODC inhibitor (60%) approached that observed in 21-day castrated hamsters (78%).

[2] = system: Flank Organ Hair Mass; experiment: similar series of experiments comparing a variety of compositions, flank organ hair mass (Table III); type: in vivo, hamster; set-up: Flank Organ Hair Mass, Untreated / Flank Organ Hair Mass, Treated: unit not given here
Method: Additional experiments were conducted to test topical regimens composed of a combination of 2(difluoromethyl)-2,5-diaminopentanoic acid along with antiandrogens. […] In each case, hamsters were treated for 15 days (Monday-Friday) during a 21-day interval. Flank organ hairs were epilated on the first day of treatment and re-epilated on the sixth day of treatment. The mass of flank organ hair represents the regrowth during the final 14 days of the 21-day interval.

[3] = system: ornithine decarboxylase (ODC), flank organ; experiment: flank organ ODC activity after topical application for 21 consecutive days; type: in vivo, hamster; settings: 500 micrograms in 10 microliters 70% ethanol, versus hamsters castrated for 21 days
[4] = system: flank organ hair mass in adult intact male hamsters; experiment: efficacy of topical compositions in reducing flank organ hair mass in adult intact male hamsters (Tables I and II); type: in vivo, hamster; settings: 15 days (Mon-Fri) in 21-day interval, versus vehicle controls
Method: Summarized below in Tables I and II are the results of two experiments comparing the efficacy of several compositions in reducing the flank organ hair mass in adult intact male hamsters. In each case, hamsters were treated for 15 days (Monday-Friday) during a 21-day interval. Flank organ hairs were epilated on the first day of treatment and re-epilated on the sixth day of treatment. […] The results for percent inhibition shown below are based upon comparisons between the hair mass values of hairs harvested from treated flank organs of experimental animals and those obtained from vehicle-treated control animals.

[5] = system: brain 4-aminobutyric acid levels; settings: transformation catalyzed by mitochondrial monoamine oxidase; known secondary pharmacological effect; cited from earlier work
[6] = 5 micrograms per square centimeter
[7] = 50 micrograms per square centimeter
[8] = 250 micrograms per square centimeter
[9] = 500 micrograms per square centimeter
[10] = Table II, 500 micrograms per square centimeter

## NCCCC(N)(C(=O)O)C(F)F (stereo not shown) [2(difluoromethyl)-2,5-diaminopentanoic acid]
[1]
  magnitude of hair mass inhibition: 60%
[2]; [6]
  % Inhibition (flank organ hair mass): 2%
  Flank Organ Hair Mass, Treated: 3.20
[2]; [7]
  % Inhibition (flank organ hair mass): 7%
  Flank Organ Hair Mass, Treated: 2.85
[2]; [8]
  % Inhibition (flank organ hair mass): 24%
  Flank Organ Hair Mass, Treated: 2.29
[2]; [9]
  % Inhibition (flank organ hair mass): 33%
  Flank Organ Hair Mass, Treated: 1.81
[2]; treatment group 5 micrograms per square centimeter
  Flank Organ Hair Mass, Untreated: 3.26
[2]; treatment group 50 micrograms per square centimeter
  Flank Organ Hair Mass, Untreated: 3.05
[2]; treatment group 250 micrograms per square centimeter
  Flank Organ Hair Mass, Untreated: 3.00
[2]; treatment group 500 micrograms per square centimeter
  Flank Organ Hair Mass, Untreated: 2.71
[3]
  flank organ ODC activity: reduced to levels found in hamsters castrated for 21 days
[4]; Table I, 500 micrograms per square centimeter
  % Inhibition (flank organ hair mass): 46%
[4]; [10]
  % Inhibition (flank organ hair mass): 41%

## C#CC(N)CCCN (stereo not shown) [5-hexyne-1,4-diamine]
[5]
  brain 4-aminobutyric acid levels: increases in brain 4-aminobutyric acid levels

## CC(=O)O[C@]1(C(C)=O)CC[C@H]2[C@@H]3C=C(Cl)C4=CC(=O)CC[C@]4(C)[C@H]3CC[C@@]21C [Chloromadinone acetate, chlormadinone acetate]
[4]; [10]
  % Inhibition (flank organ hair mass): 41%

## CC(=O)[C@H]1CC[C@H]2[C@@H]3CCC4=CC(=O)CC[C@]4(C)[C@H]3CC[C@]12C [Progesterone, progesterone]
[4]; Table I, 1000 micrograms per square centimeter
  % Inhibition (flank organ hair mass): 50%
